Patent US9708314B2, “Heterocyclic amide compound” (NISSAN CHEMICAL INDUSTRIES, LTD., priority 2013, dated 2017)

Legend:
Type in all cases: in vivo
Apera spica-venti. = experiment: Test Example 4: herbicidal effect by application to foliage (diluvial soil, plastic box); settings: for L: Application herbicide amount 320 g/ha
Summary of the method: (§1)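 Emulsion-formulated compound, diluted to a predetermined g/ha dose, applied by small sprayer to leaves and stems of 14-day-old seedlings grown in sterilized diluvial soil. Effect rated on 0–5 herbicidal-ratio scale three weeks on.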

Lolium multiflorum Lam. = experiment: as above; settings: for K: Application herbicide amount 320 g/ha
Summary of the method: as §1

Amaranthus retroflexus = experiment: as above; settings: application to foliage, application herbicide amount 320 g/ha
Summary of the method: as §1

Setaria viridis = experiment: as above; settings: for G: Application herbicide amount 320 g/ha
Summary of the method: as §1

Digitaria ciliaris = experiment: as above; settings: for F: Application herbicide amount 320 g/ha
Summary of the method: as §1

Avena fatua = experiment: as above; settings: for I: Application herbicide amount 320 g/ha
Summary of the method: as §1

Abutilon theophrasti = experiment: as above; settings: for M: Application herbicide amount 320 g/ha
Summary of the method: as §1

Stellaria media = experiment: as above; settings: application to foliage, application herbicide amount 320 g/ha
Summary of the method: as §1

Alopecurus myosuroides = experiment: as above; settings: for J: Application herbicide amount 320 g/ha
Summary of the method: as §1

Galium spurium = experiment: as above; settings: for Q: Application herbicide amount 320 g/ha
Summary of the method: as §1

[1] = system: directly sowed Oryza sativa; experiment: Test Example 3: effect on crop by application to foliage (Wagner pot, water depth 0.1-0.5 cm); settings: Nineteenth Table; for b (effect on crop grade): application to foliage, application herbicide amount 320 g/ha
Summary of the method: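 Post-emergence foliar application at a stated g/ha rate to plants grown 14 days from seed in alluvial soil, greenhouse 25–30 °C. Visual score after 3 weeks: 0 (≤5% effect) through 5 (≥90%).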

Veronica persica = experiment: Test Example 4: herbicidal effect by application to foliage (diluvial soil, plastic box); settings: Application herbicide amount 320 g/ha
Summary of the method: as §1

[2] = application to foliage, application herbicide amount 320 g/ha

Row | SMILES | L (Apera spica-venti.) | K (Lolium multiflorum Lam.) | G (Setaria viridis) | R (Veronica persica) | F (Digitaria ciliaris) | I (Avena fatua) | M (Abutilon theophrasti) | J (Alopecurus myosuroides) | Q (Galium spurium) | b (effect on crop grade) [1] | further results
1 | Cc1nnc(NC(=O)c2ccc(C(F)(F)F)n3c(C)nnc23)o1 [1-002] |  |  |  |  |  |  |  |  |  |  | L (Apera spica-venti.) herbicidal effect (Apera spica-venti.; [2]): 1 (Herbicidal ratio of 5% or more and less than 20%); K (Lolium multiflorum Lam.) herbicidal effect (Lolium multiflorum Lam.; [2]): 2 (Herbicidal ratio of 20% or more and less than 40%); N (Amaranthus retroflexus) herbicidal effect (Amaranthus retroflexus): 3 (Herbicidal ratio of 40% or more and less than 70%); G (Setaria viridis) herbicidal effect (Setaria viridis; [2]): 2 (Herbicidal ratio of 20% or more and less than 40%); F (Digitaria ciliaris) herbicidal effect (Digitaria ciliaris; [2]): 4 (Herbicidal ratio of 70% or more and less than 90%); I (Avena fatua) herbicidal effect (Avena fatua; [2]): 3 (Herbicidal ratio of 40% or more and less than 70%); M (Abutilon theophrasti) herbicidal effect (Abutilon theophrasti; [2]): 3 (Herbicidal ratio of 40% or more and less than 70%); P (Stellaria media) herbicidal effect (Stellaria media): 5 (Herbicidal ratio of 90% or more (almost completely withered)); J (Alopecurus myosuroides) herbicidal effect (Alopecurus myosuroides; [2]): 1 (Herbicidal ratio of 5% or more and less than 20%); Q (Galium spurium) herbicidal effect (Galium spurium; [2]): 4 (Herbicidal ratio of 70% or more and less than 90%); b (directly sowed Oryza sativa) effect on crop grade ([1]; application herbicide amount 400 g/ha): 0 (Herbicidal ratio of 5% or less (almost no effect))
2 | CCC[S+]([O-])c1nnc2c(C(=O)Nc3nnc(C)o3)ccc(C(F)(F)F)n12 (stereo not drawn) [1-092] | 1 (Herbicidal ratio of 5% or more and less than 20%) | 1 (Herbicidal ratio of 5% or more and less than 20%) | 5 (Herbicidal ratio of 90% or more (almost completely withered)) | 5 (Herbicidal ratio of 90% or more (almost completely withered)) | 5 (Herbicidal ratio of 90% or more (almost completely withered)) | 2 (Herbicidal ratio of 20% or more and less than 40%) | 4 (Herbicidal ratio of 70% or more and less than 90%) | 1 (Herbicidal ratio of 5% or more and less than 20%) | 3 (Herbicidal ratio of 40% or more and less than 70%) | 4 (Herbicidal ratio of 70% or more and less than 90%) | 
3 | Cc1nnc(NC(=O)c2ccc(C(F)(F)F)n3c(SCC(C)C)nnc23)o1 [1-093] | 1 (Herbicidal ratio of 5% or more and less than 20%) | 1 (Herbicidal ratio of 5% or more and less than 20%) | 3 (Herbicidal ratio of 40% or more and less than 70%) | 4 (Herbicidal ratio of 70% or more and less than 90%) | 5 (Herbicidal ratio of 90% or more (almost completely withered)) | 1 (Herbicidal ratio of 5% or more and less than 20%) | 4 (Herbicidal ratio of 70% or more and less than 90%) | 0 (Herbicidal ratio of 5% or less (almost no effect)) | 1 (Herbicidal ratio of 5% or more and less than 20%) | 1 (Herbicidal ratio of 5% or more and less than 20%) | 
4 | CCC(C)Sc1nnc2c(C(=O)Nc3nnc(C)o3)ccc(C(F)(F)F)n12 (stereo not drawn) [1-094] | 1 (Herbicidal ratio of 5% or more and less than 20%) | 1 (Herbicidal ratio of 5% or more and less than 20%) | 4 (Herbicidal ratio of 70% or more and less than 90%) | 4 (Herbicidal ratio of 70% or more and less than 90%) | 5 (Herbicidal ratio of 90% or more (almost completely withered)) | 2 (Herbicidal ratio of 20% or more and less than 40%) | 4 (Herbicidal ratio of 70% or more and less than 90%) | 1 (Herbicidal ratio of 5% or more and less than 20%) | 0 (Herbicidal ratio of 5% or less (almost no effect)) | 1 (Herbicidal ratio of 5% or more and less than 20%) | 
5 | Cc1nnc(NC(=O)c2ccc(C(F)(F)F)n3c(SC(C)(C)C)nnc23)o1 [1-095] | 1 (Herbicidal ratio of 5% or more and less than 20%) | 2 (Herbicidal ratio of 20% or more and less than 40%) | 3 (Herbicidal ratio of 40% or more and less than 70%) | 5 (Herbicidal ratio of 90% or more (almost completely withered)) | 5 (Herbicidal ratio of 90% or more (almost completely withered)) | 1 (Herbicidal ratio of 5% or more and less than 20%) | 4 (Herbicidal ratio of 70% or more and less than 90%) | 1 (Herbicidal ratio of 5% or more and less than 20%) | 3 (Herbicidal ratio of 40% or more and less than 70%) | 1 (Herbicidal ratio of 5% or more and less than 20%) | 
6 | Cc1nnc(NC(=O)c2ccc(C(F)(F)F)n3c(N4CCOCC4)nnc23)o1 [1-096] | 3 (Herbicidal ratio of 40% or more and less than 70%) | 2 (Herbicidal ratio of 20% or more and less than 40%) | 5 (Herbicidal ratio of 90% or more (almost completely withered)) | 5 (Herbicidal ratio of 90% or more (almost completely withered)) | 5 (Herbicidal ratio of 90% or more (almost completely withered)) | 2 (Herbicidal ratio of 20% or more and less than 40%) | 4 (Herbicidal ratio of 70% or more and less than 90%) | 1 (Herbicidal ratio of 5% or more and less than 20%) | 4 (Herbicidal ratio of 70% or more and less than 90%) | 4 (Herbicidal ratio of 70% or more and less than 90%) | 
7 | CC(C)c1nnc2c(C(=O)Nc3nnc(C(F)(F)F)o3)ccc(C(F)(F)F)n12 [1-100] | 0 (Herbicidal ratio of 5% or less (almost no effect)) | 0 (Herbicidal ratio of 5% or less (almost no effect)) | 1 (Herbicidal ratio of 5% or more and less than 20%) | 1 (Herbicidal ratio of 5% or more and less than 20%) | 3 (Herbicidal ratio of 40% or more and less than 70%) | 1 (Herbicidal ratio of 5% or more and less than 20%) | 3 (Herbicidal ratio of 40% or more and less than 70%) | 0 (Herbicidal ratio of 5% or less (almost no effect)) | 0 (Herbicidal ratio of 5% or less (almost no effect)) | 0 (Herbicidal ratio of 5% or less (almost no effect)) | 
8 | COc1cccc(Nc2nnc3c(C(=O)Nc4nnc(C)o4)ccc(C(F)(F)F)n23)n1 [1-102] | 0 (Herbicidal ratio of 5% or less (almost no effect)) | 0 (Herbicidal ratio of 5% or less (almost no effect)) | 3 (Herbicidal ratio of 40% or more and less than 70%) | 4 (Herbicidal ratio of 70% or more and less than 90%) | 3 (Herbicidal ratio of 40% or more and less than 70%) | 0 (Herbicidal ratio of 5% or less (almost no effect)) | 3 (Herbicidal ratio of 40% or more and less than 70%) | 0 (Herbicidal ratio of 5% or less (almost no effect)) | 2 (Herbicidal ratio of 20% or more and less than 40%) | 2 (Herbicidal ratio of 20% or more and less than 40%) | 
